Common to all, as to assay: Inhibition of cancer cell proliferation (MTT)
What all share (format): cell-based, human

One assay has as its system HCT116. As for the experimental part:
(§1) A test was conducted to confirm whether the compounds obtained in the above Examples can inhibit proliferation of human colon carcinoma cell line HCT116, glioblastoma cell lines U-87MG and T98G, neuroblastoma cell lines SH-SYSY and SK-N-SH, and lung cancer cell lines A549 and NCI-H23.
(§2) HCT116, U-87MG, SH-SYSY, SK-N-SH and A549 cells were culured in DMEM medium containing 10% FBS. T98G cells were cultured in MEM medium containing 10% FBS and NCI-H23 cells were cultured in […] medium containing 10% FBS. In order to analyze an inhibition of proliferation, HCT116 cells were dispensed in 2000 cells/well into 96 well plate, and SH-SYSY, SK-N-SH, U-87MG, T98G, A549, and NCI-H23 cells were dispensed in 3000 cells/well into 96 well plate. And then, the cells were cultured at 5% CO2 and 37° C. for 16 hrs to allow the cells to attach to the wells. The compounds of the above Examples were added to each well at a concentration of 0.004, 0.013, 0.04, 0.12, 0.37, 1.1, 3.3, and 10 uM, and the culture volume was adjusted to 100 ul. A control group was treated with dimethylsulfoxide (DMSO) at the same concentration, 0.08%, as used to treat the test compounds. Afterwards, cells were cultured at 5% CO2 and 37° C. for 72 hrs. And then, 10 ul of the solution of MTT (3-(4,5-dimethylthiazol-2-yl)-2,5-diphenyltetrazolium bromide) dissolved in PBS at 5 mg/ml was added to each well to identify viable cells and the cells were cultured for further 2 hrs. The culture solution was removed, 100 ul of DMSO was added to dissolve the formed formazan and then an absorbance was measured at 535 nm. Based on the absorbance of the control cells not treated with the compounds, the amounts of the viable cells according to the concentration of the compounds were calculated. GI50 (growth inhibition 50) value which is the concentration of the compound to inhibit cancer cell proliferation by 50% was calculated using Graphpad Prism 5.0 program.

In a further assay the test system is NCI-H23. On the procedure:
as §1, §2

A further assay concerns U-87MG. As for the experimental part: as §1, §2
Another assay deals with T98G. As for the experimental part: as §1, §2
The subject of the next assay is A549. On the procedure:
as §1, §2

The values that follow come from US20200190062A1, “HETEROCYCLIC COMPOUND AND PHARMACEUTICAL COMPOSITION COMPRISING SAME” (BEYONDBIO INC., priority 2015, published 2020).

Structures can show the parent of a compound that is named as a salt.

As to `Nc1cc(-c2ncc(O)c(-c3ccnc(N)n3)n2)ccn1` [Example 5, 2′-amino-2-(2-aminopyridin-4-yl)-[4,4′-bipyrimidin]-5-ol], growth in the assay on HCT116 (Homo sapiens, HCT-116, 72 h) was halved (GI50) at 3590 nM.
With `Nc1nccc(-c2cnc(O)c(-c3ccnc(N)n3)c2)n1` [Example 6, 3,5-bis(2-aminopyrimidin-4-yl)pyridin-2-ol], the GI50 (as a rule, the concentration that inhibits growth by half) with HCT116 (Homo sapiens, HCT-116, 72 h) is 2300 nM.
On the same count and under the same terms, the figure for `Nc1cccc(-c2nc(-c3ccnc(N)n3)ccc2O)n1` [Example 7, 6′-amino-6-(2-aminopyrimidin-4-yl)-[2,2′-bipyridin]-3-ol] is 670 nM; for `Nc1nccc(-c2nc(-c3cccnc3)ccc2O)n1` [Example 11, 6-(2-aminopyrimidin-4-yl)-[2,3′-bipyridin]-5-ol] it is 6080 nM; for `Cc1cc(-c2nc(-c3ccncc3)ccc2O)nc(N)n1` [Example 25, 6-(2-amino-6-methylpyrimidin-4-yl)-[2,4′-bipyridin]-5-ol] it is 290 nM.
The same measure, in the same setting: for `Cc1cc(-c2nc(-c3ccncc3F)ccc2O)nc(N)n1` [Example 26, 6-(2-amino-6-methylpyrimidin-4-yl)-3′-fluoro-[2,4′-bipyridin]-5-ol] the value was 1180 nM; for `Cc1cc(-c2nc(-c3ccc(O)cc3)ccc2O)nc(N)n1` [Example 27, 2-(2-amino-6-methylpyrimidin-4-yl)-6-(4-hydroxyphenyl)pyridin-3-ol], 290 nM; for `Cc1cc(-c2nc(-c3ccc(O)cc3F)ccc2O)nc(N)n1` [Example 29, 2-(2-amino-6-methylpyrimidin-4-yl)-6-(2-fluoro-4-hydroxyphenyl)pyridin-3-ol], 1260 nM.
`Cc1cc(-c2nc(-c3cccc(N)c3)ccc2O)nc(N)n1` [Example 30, 2-(2-amino-6-methylpyrimidin-4-yl)-6-(3-aminophenyl)pyridin-3-ol] registered a GI50 in the assay on HCT116 (Homo sapiens, HCT-116, 72 h) of 720 nM.
For `Nc1nc(-c2nc(-c3ccnc(N)c3F)ccc2O)cc(C2CCOCC2)n1` [Example 32, 2′-amino-6-(2-amino-6-(tetrahydro-2H-pyran-4-yl)pyrimidin-4-yl)-3′-fluoro-[2,4′-bipyridin]-5-ol], the GI50 in the assay on NCI-H23 (Homo sapiens, NCI-H23, 72 h) turned out to be 190 nM; in the assay with U-87MG (Homo sapiens, U-87 MG, 72 h), 100 nM; in the assay on T98G (Homo sapiens, T98G, 72 h) it was 110 nM; in the assay on HCT116 (Homo sapiens, HCT-116, 72 h) it was 30 nM; in the assay on A549 (Homo sapiens, A549, 72 h), 80 nM.
Taken in the same sequence, the figures for `CCN1CCC(c2cc(-c3nc(-c4ccnc(N)c4F)ccc3O)nc(N)n2)CC1` [Example 35, 2′-amino-6-(2-amino-6-(1-ethylpiperidin-4-yl)pyrimidin-4-yl)-3′-fluoro-[2,4′-bipyridin]-5-ol] were 60 nM, 30 nM, 210 nM, 10 nM and 20 nM.
Turning to `CCCN1CCC(c2cc(-c3nc(-c4ccnc(N)c4F)ccc3O)nc(N)n2)CC1` [Example 36, 2′-amino-6-(2-amino-6-(1-propylpiperidin-4-yl)pyrimidin-4-yl)-3′-fluoro-[2,4′-bipyridin]-5-ol], the GI50 is 50 nM with NCI-H23 (Homo sapiens, NCI-H23, 72 h); 10 nM with U-87MG (Homo sapiens, U-87 MG, 72 h); 20 nM with T98G (Homo sapiens, T98G, 72 h); 10 nM in the assay on HCT116 (72 hrs); 20 nM in the assay with A549 (Homo sapiens, A549, 72 h).
As to `CC(C)N1CCC(c2cc(-c3nc(-c4ccnc(N)c4F)ccc3O)nc(N)n2)CC1` [Example 37, 2′-amino-6-(2-amino-6-(1-isopropylpiperidin-4-yl)pyrimidin-4-yl)-3′-fluoro-[2,4′-bipyridin]-5-ol], the GI50 in the assay on NCI-H23 (Homo sapiens, NCI-H23, 72 h) was determined as 60 nM; in the assay on U-87MG (Homo sapiens, U-87 MG, 72 h), 10 nM; in the assay with T98G (Homo sapiens, T98G, 72 h), 30 nM; in the assay with HCT116 (72 hrs), 10 nM; in the assay on A549 (Homo sapiens, A549, 72 h) it was 20 nM.
For the compound `CN1CCCC(c2cc(-c3nc(-c4ccnc(N)c4F)ccc3O)nc(N)n2)C1` (stereo not drawn) [Example 38, 2′-amino-6-(2-amino-6-(1-methylpiperidin-3-yl)pyrimidin-4-yl)-3′-fluoro-[2,4′-bipyridin]-5-ol], the GI50 with NCI-H23 (Homo sapiens, NCI-H23, 72 h) stood at 20 nM; in the assay on U-87MG (Homo sapiens, U-87 MG, 72 h), 4 nM; with T98G (Homo sapiens, T98G, 72 h), 20 nM; with HCT116 (Homo sapiens, HCT-116, 72 h), 2 nM; with A549 (Homo sapiens, A549, 72 h), 5 nM.
For `Cc1c(-c2nc(-c3ccnc(N)c3F)ccc2O)nc(N)nc1C1CCCN(C(C)C)C1` (stereo not drawn) [Example 48, 2′-amino-6-(2-amino-6-(1-isopropylpiperidin-3-yl)-5-methylpyrimidin-4-yl)-3′-fluoro-[2,4′-bipyridin]-5-ol], the 50% growth inhibitory concentration (GI50) with U-87MG (Homo sapiens, U-87 MG, 72 h) came to 3820 nM; in the assay with HCT116 (Homo sapiens, HCT-116, 72 h), 2910 nM.
In the assay on HCT116 (72 hrs, oxalate), `Nc1nccc(-c2ccc(O)c(-c3ccnc(N)n3)n2)n1` [Example 62, 2,6-bis(2-aminopyrimidin-4-yl)pyridin-3-ol oxalate] yielded a GI50 of 190 nM.
`Nc1nccc(-c2ccc(O)c(-c3ccnc(N)n3)n2)n1` [Example 63, 2,6-bis(2-aminopyrimidin-4-yl)pyridin-3-ol malonate] registered a GI50 with HCT116 (72 hrs) of 190 nM.
Turning to `Nc1nccc(-c2ccc(O)c(-c3ccnc(N)n3)n2)n1` [Example 64, 2,6-bis(2-aminopyrimidin-4-yl)pyridin-3-ol sulfate], growth in the assay with HCT116 (72 hrs) was halved (GI50) at 190 nM.
As to `CN1CCC(c2cc(-c3nc(-c4ccnc(N)c4F)ccc3O)nc(N)n2)CC1` [Example 78, 2′-amino-6-(2-amino-6-(1-methylpiperidin-4-yl)pyrimidin-4-yl)-3′-fluoro-[2,4′-bipyridin]-5-ol 2acetate], in the assay on HCT116 (72 hrs), growth was halved (GI50) at 40 nM.
With `CN1CCC(c2cc(-c3nc(-c4ccnc(N)c4F)ccc3O)nc(N)n2)CC1` [Example 79, 2′-amino-6-(2-amino-6-(1-methylpiperidin-4-yl)pyrimidin-4-yl)-3′-fluoro-[2,4′-bipyridin]-5-ol oxalate], in the assay with HCT116 (72 hrs, oxalate), the GI50 was 40 nM.
In the assay with HCT116 (72 hrs), `CN1CCC(c2cc(-c3nc(-c4ccnc(N)c4F)ccc3O)nc(N)n2)CC1` [Example 80, 2′-amino-6-(2-amino-6-(1-methylpiperidin-4-yl)pyrimidin-4-yl)-3′-fluoro-[2,4′-bipyridin]-5-ol malonate] came in with a concentration for 50% growth inhibition (GI50) of 140 nM.
Consider `CC(C)c1cc(-c2nc(-c3ccnc(N)c3F)ccc2O)nc(N)n1` [Example 81, 2′-amino-6-(2-amino-6-isopropylpyrimidin-4-yl)-3′-fluoro-[2,4′-bipyridin]-5-ol 3hydrochloride], for which the GI50 with NCI-H23 (72 hrs) came out at 70 nM; with HCT116 (72 hrs), 20 nM; in the assay on A549 (72 hrs), 140 nM.
`CC(C)c1cc(-c2nc(-c3ccnc(N)c3F)ccc2O)nc(N)n1` [Example 82, 2′-amino-6-(2-amino-6-isopropylpyrimidin-4-yl)-3′-fluoro-[2,4′-bipyridin]-5-ol 2acetate]: the GI50 in the assay with NCI-H23 (72 hrs) was 90 nM; with HCT116 (72 hrs) it was 20 nM; in the assay with A549 (72 hrs), 170 nM.
`CN1CCCC(c2cc(-c3nc(-c4ccnc(N)c4F)ccc3O)nc(N)n2)C1` (stereo not drawn) [Example 89, 2′-amino-6-(2-amino-6-(1-methylpiperidin-3-yl)pyrimidin-4-yl)-3′-fluoro-[2,4′-bipyridin]-5-ol 4hydrochloride]: the GI50 in the assay on NCI-H23 (72 hrs) worked out at 20 nM; with T98G (72 hrs) it was 20 nM; in the assay on A549 (72 hrs) it was 10 nM.
For the compound `Cc1c(-c2nc(-c3ccnc(N)c3F)ccc2O)nc(N)nc1C1CCCN(C(C)C)C1` (stereo not drawn) [Example 99, 2′-amino-6-(2-amino-6-(1-isopropylpiperidin-3-yl)-5-methylpyrimidin-4-yl)-3′-fluoro-[2,4′-bipyridin]-5-ol 4hydrochloride], the GI50 in the assay on U-87MG (72 hrs) stood at 2570 nM; in the assay with T98G (Homo sapiens, T98G, 72 h), 3790 nM; in the assay with HCT116 (72 hrs), 2030 nM.
